This is an account of results in ChEMBL document CHEMBL1128917, “1-O-, 2-O- and 3-O--glycosyl-sn-glycerols: Structure - anti-tumor-promoting activity relationship” (1996).

Holding throughout (assay type): functional, Homo sapiens
Assay [1] deals with Raji. The assay can be described thus: Tested in vitro for inhibitory activity against TPA induced Epstein-Barr virus antigen activation in Raji cells (1000 mol) for positive control.
The test system of assay [2] is Raji. The assay can be described thus: Tested in vitro for inhibitory activity against TPA induced Epstein-Barr virus antigen activation in Raji cells (100 mol) for positive control.
Assay [3] concerns Raji. Nature of the assay: Tested in vitro for inhibitory activity against TPA induced Epstein-Barr virus antigen activation in Raji cells (10 mol) for positive control.
Assay [4] relates to Raji. The assay can be described thus: Tested in vitro for inhibitory activity against TPA induced Epstein-Barr virus antigen activation in Raji cells (500 mol) for positive control.
Assay [5] deals with Raji. The assay can be described thus: Tested in vitro for inhibitory activity against TPA induced Epstein-Barr virus antigen activation in Raji cells (1000 mol) for viability.

Each structure is given as a SMILES string.

Regarding `CO[C@@H]1O[C@H](CO)[C@H](O)[C@H](O)[C@H]1O`, the entries for the “EBV antigen activation, % of positive control” value (“EBV antigen activation, %” below) in assay [1], in assay [2] and in assay [3] were 20.3%, 76.5% and 93.7%, respectively. Further, the “EBV-EA activation (% of positive control)” value in assay [4] was 43.9%. The compound further gave a Viability in assay [5] of 80%.
As for `CO[C@@H]1O[C@H](CO)C(O)C(O)[C@H]1O` (single isomer, unassigned), the results for the “EBV antigen activation, %” value in assay [1], in assay [2] and in assay [3] were 22.8%, 70.7% and 100%, respectively. Further, the “EBV-EA activation (% of positive control)” value in assay [4] is 54.1%. The same compound gave a Viability in assay [5] of 70%.
For `OCC(O)CO[C@@H]1O[C@@H](CO)[C@@H](O)[C@H](O)[C@@H]1O` (stereo in doubt; form 1), the “EBV antigen activation, %” value in assay [1] is on record as 0%; in assay [2], 62.4%; in assay [3], 82.5%. Also, in assay [4], the “EBV-EA activation (% of positive control)” value is 20.7%. The compound also came in with a Viability in assay [5] of 70%.
In the case of `CC(=O)OCC(CO)O[C@@H]1O[C@@H](CO)[C@@H](O)[C@H](O)[C@@H]1O` (stereo in doubt; form 1), the “EBV antigen activation, %” value in assay [2] is listed as 71.5%; in assay [3], 94.7%. Besides, the “EBV-EA activation (% of positive control)” value in assay [4] was found to be 32.9%.
On to `OCC(CO)O[C@@H]1O[C@@H](CO)[C@H](O)[C@H](O)[C@@H]1O` (stereo in doubt; form 1), for which the “EBV antigen activation, %” value in assay [2] amounted to 81%. Besides, the “EBV-EA activation (% of positive control)” value in assay [4] was 45.8%. In assay [5], the Viability is given as 70%.
On to `OCC(O)CO[C@@H]1O[C@@H](CO)[C@H](O)[C@H](O)[C@@H]1O` (stereo in doubt; form 1), for which the entries for the “EBV antigen activation, %” value in assay [2] and in assay [3] were 58.2% and 79.1%, respectively. Further, the “EBV-EA activation (% of positive control)” value in assay [4] was found to be 16.5%.
For the compound `OCC(O)CO[C@@H]1O[C@@H](CO)[C@@H](O)[C@H](O)[C@@H]1O` (stereo in doubt; form 2), the “EBV antigen activation, %” value in assay [2] came out at 68.9%; in assay [3] it was 90.4%. In addition, the “EBV-EA activation (% of positive control)” value in assay [4] turned out to be 27.4%.
In the case of `CC(=O)OCC(CO)O[C@@H]1O[C@@H](CO)[C@@H](O)[C@H](O)[C@@H]1O` (stereo in doubt; form 2), the figures for the “EBV antigen activation, %” value in assay [1], in assay [2] and in assay [3] were 0%, 77.3% and 100%, respectively. Further, in assay [4], the “EBV-EA activation (% of positive control)” value worked out at 36.6%. In assay [5], this compound yielded a Viability of 70%.
For `OCC(CO)O[C@@H]1O[C@@H](CO)[C@H](O)[C@H](O)[C@@H]1O` (stereo in doubt; form 2) the same measures were 0%, 88.1%, 100%, 17.5% and 80%.
For `OCC(O)CO[C@@H]1O[C@@H](CO)[C@H](O)[C@H](O)[C@@H]1O` (stereo in doubt; form 2), the “EBV antigen activation, %” value in assay [1] is 0%; in assay [2] it was 64.6%; in assay [3] it was 87.5%. In addition, the “EBV-EA activation (% of positive control)” value in assay [4] was found to be 25.8%. In assay [5], the Viability stood at 70%.
